Laboratory results as given in patent US20240109903A1, “SUBSTITUTED HETEROCYCLES FOR TREATING CANCER” (Northwestern University, priority 2022, published 2024).
Where two headings read alike, the source gives them in different places.

Key:
MCF7 = test: NCI 60 five-dose screen MCF7; type: cell-based; settings: Homo sapiens; for CC50: read-out: LC50 (the source's name) (converted)
HCT-116 = test: NCI 60 five-dose screen HCT-116; type: cell-based; settings: Homo sapiens; for CC50: read-out: LC50 (the source's name) (converted)
UACC-62 = test: NCI 60 five-dose screen UACC-62; type: cell-based; settings: Homo sapiens; for CC50: read-out: LC50 (the source's name) (converted)
BT-549 = test: NCI 60 five-dose screen BT-549; type: cell-based; settings: Homo sapiens; for CC50: read-out: LC50 (the source's name) (converted)
EKVX = test: NCI 60 five-dose screen EKVX; type: cell-based; settings: Homo sapiens; for CC50: read-out: LC50 (the source's name) (converted)
MDA-MB-435 = test: NCI 60 five-dose screen MDA-MB-435; type: cell-based; settings: Homo sapiens; for CC50: read-out: LC50 (the source's name) (converted)
M14 = test: NCI 60 five-dose screen M14; type: cell-based; settings: Homo sapiens; for CC50: read-out: LC50 (the source's name) (converted)
ACHN = test: NCI 60 five-dose screen ACHN; type: cell-based; settings: Homo sapiens; for CC50: read-out: LC50 (the source's name) (converted)
MDA-MB-231/ATCC = test: NCI 60 five-dose screen MDA-MB-231/ATCC; type: cell-based; settings: Homo sapiens; for CC50: read-out: LC50 (the source's name) (converted)
NCI-H460 = test: NCI 60 five-dose screen NCI-H460; type: cell-based; settings: Homo sapiens; for CC50: read-out: LC50 (the source's name) (converted)
HT29 = test: NCI 60 five-dose screen HT29; type: cell-based; settings: Homo sapiens
SW-620 = test: NCI 60 five-dose screen SW-620; type: cell-based; settings: Homo sapiens; for CC50: read-out: LC50 (the source's name) (converted)
SN12C = test: NCI 60 five-dose screen SN12C; type: cell-based; settings: Homo sapiens; for CC50: read-out: LC50 (the source's name) (converted)
RXF 393 = test: NCI 60 five-dose screen RXF 393; type: cell-based; settings: Homo sapiens; for CC50: read-out: LC50 (the source's name) (converted)
786-0 = test: NCI 60 five-dose screen 786-0; type: cell-based; settings: Homo sapiens; for CC50: read-out: LC50 (the source's name) (converted)
[1] = tested on: MV-4-11 acute myeloid leukemia cells; test: CellTiter-Glo 2.0 cell viability, MV-4-11; type: cell-based; settings: Homo sapiens
Method: 2019 October; 94(4): 1813-1823.
Cell viability was assessed using the CellTiter-Glo 2.0 assay from Promega, which yields a signal proportional to the amount of ATP present in a cell population. Compounds were first dispensed into empty 96-well flat-bottom tissue culture-treated plates (Corning) using an Echo550. MV4-1 cells were diluted to a density of 0.1 million cells per ml, pipetted onto the compounds at a density of 1,000 cells per well for U937 and 3,000 cells per well for MV4-11, mixed, and incubated for 3 days at 37° C. with 5% C02. After incubating, 5 μl of cells from each well were added to 5 μl of CellTiter-Glo 2.0 reagent in a384-well white ProxiPlate (PerkinElmer), incubated for 20 minutes at ambient temperature, and luminescence was analyzed on an EnSpire plate reader. Graphing and regression analysis was performed in Graphpad Prism.

SF-539 = test: NCI 60 five-dose screen SF-539; type: cell-based; settings: Homo sapiens; for CC50: read-out: LC50 (the source's name) (converted)
SF-295 = test: NCI 60 five-dose screen SF-295; type: cell-based; settings: Homo sapiens; for CC50: read-out: LC50 (the source's name) (converted)
HCT-15 = test: NCI 60 five-dose screen HCT-15; type: cell-based; settings: Homo sapiens; for CC50: read-out: LC50 (the source's name) (converted)
full NCI 60 cell panel = test: NCI 60 Cell One-dose screen; type: cell-based, human; settings: single high dose 10^−5 M, NCI 60 panel
Text: Compounds were submitted to the NCI 60 Cell screen and tested at a single high dose (10^−5 M) in the full NCI 60 cell panel (see the following reference for details of using NCI 60 human tumor cell lines for screening anticancer drugs: Shoemaker R H. The NCI60 human tumor cell line anticancer drug screen. Nature Rev Cancer 2006; 6: 813-23). The One-dose data is reported as a mean graph of the percent growth of treated cells. The number reported for the One-dose assay is growth relative to the no-drug control, and relative to the time zero number of cells. This allows detection of both growth inhibition (values between 0 and 100) and lethality (values less than 0). For example, a value of 100 means no growth inhibition. A value of 40 would mean 60% growth inhibition. A value of 0 means no net growth over the course of the experiment. A value of −40 would mean 40% lethality. A value of −100 means all cells are dead. FIGS. 1-8 show the mean graph of percent growth against the NCI-60 cell panel for NUCC-0226674, NUCC-0226679, NUCC-0226680, NUCC-0226683, NUCC-0226689, NUCC-0226694, NUCC-0226695, and NUCC-0226698.

[2] = MV4-11, 72 h, MV-4-11 cells, 3 days, CellTiter-Glo 2.0, read-out: IC50 (uM) [Cell Type: MV-4-11]
[3] = MV4-11, bound stated in text, read-out: IC50 against MV-4-11 acute myeloid leukemia cells

COc1cc(Cn2c(C(F)(F)F)cc3c(Cl)ncnc32)ccn1 [NUCC-0226694]
GI50 (MCF7): 5.13 µM | IC50 (MCF7): 7.24 µM | IC (TGI) (MCF7): 20 µM | CC50 (MCF7): 61.7 µM | GI50 (HCT-116): 1.74 µM | IC50 (HCT-116): 2.63 µM | IC (TGI) (HCT-116): 4.27 µM | CC50 (HCT-116): 15.1 µM | GI50 (UACC-62): 8.13 µM | IC50 (UACC-62): 15.8 µM | IC (TGI) (UACC-62): 20.4 µM | CC50 (UACC-62): 45.7 µM | GI50 (BT-549): 1.62 µM | IC50 (BT-549): 3.24 µM | IC (TGI) (BT-549): 3.16 µM | CC50 (BT-549): 6.03 µM | GI50 (EKVX): 7.94 µM | IC50 (EKVX): 17 µM | IC (TGI) (EKVX): 24 µM | CC50 (EKVX): 63.1 µM | GI50 (MDA-MB-435): 3.24 µM | IC50 (MDA-MB-435): 4.79 µM | IC (TGI) (MDA-MB-435): 14.5 µM | CC50 (MDA-MB-435): 50.1 µM | GI50 (M14): 1.51 µM | IC50 (M14): 2.69 µM | IC (TGI) (M14): 4.17 µM | CC50 (M14): 16.6 µM | GI50 (ACHN): 14.5 µM | IC50 (ACHN): 25.1 µM | IC (TGI) (ACHN): 28.8 µM | CC50 (ACHN): 57.5 µM | GI50 (MDA-MB-231/ATCC): 3.31 µM | IC50 (MDA-MB-231/ATCC): 7.94 µM | IC (TGI) (MDA-MB-231/ATCC): 12.6 µM | CC50 (MDA-MB-231/ATCC): 42.7 µM | GI50 (NCI-H460): 2.69 µM | IC50 (NCI-H460): 3.31 µM | IC (TGI) (NCI-H460): 8.13 µM | CC50 (NCI-H460): 34.7 µM | GI50 (HT29; HT-29): 14.1 µM | IC50 (HT29; HT-29): 21.9 µM | IC (TGI) (HT29; HT-29): 41.7 µM | CC50 (HT29; HT-29, read-out: LC50 (the source's name) (converted)): ≥ 100 µM | GI50 (SW-620): 3.89 µM | IC50 (SW-620): 4.9 µM | IC (TGI) (SW-620): 16.6 µM | CC50 (SW-620): 49 µM | GI50 (SN12C): 9.12 µM | IC50 (SN12C): 15.5 µM | IC (TGI) (SN12C): 21.4 µM | CC50 (SN12C): 46.8 µM | GI50 (RXF 393): 7.94 µM | IC50 (RXF 393): 24.5 µM | IC (TGI) (RXF 393): 22.4 µM | CC50 (RXF 393): 55 µM | GI50 (786-0): 10.7 µM | IC50 (786-0): 17 µM | IC (TGI) (786-0): 25.7 µM | CC50 (786-0): 63.1 µM | IC50 [1, 2]: 0.999 µM | IC50 [1, 3]: < 2 µM | GI50 (SF-539): 13.8 µM | IC50 (SF-539): 24.5 µM | IC (TGI) (SF-539): 26.9 µM | CC50 (SF-539): 51.3 µM | GI50 (SF-295): 16.6 µM | IC50 (SF-295): 30.2 µM | IC (TGI) (SF-295): 32.4 µM | CC50 (SF-295): 63.1 µM | GI50 (HCT-15): 3.09 µM | IC50 (HCT-15): 3.8 µM | IC (TGI) (HCT-15): 10 µM | CC50 (HCT-15): 53.7 µM | growth inhibition in the One-Dose Screen (full NCI 60 cell panel): significant growth inhibition

FC(F)(F)c1cc2c(Cl)ncnc2n1CCN1CCOCC1 [NUCC-0226680]
GI50 (MCF7; five-dose): 25.1 µM | IC50 (MCF7; five-dose): 35.5 µM | IC (TGI) (MCF7; five-dose): 100 µM | CC50 (MCF7; five-dose): ≥ 100 µM | GI50 (HCT-116; five-dose): 4.68 µM | IC50 (HCT-116; five-dose): 5.62 µM | IC (TGI) (HCT-116; five-dose): 100 µM | CC50 (HCT-116; five-dose): ≥ 100 µM | GI50 (UACC-62; five-dose): 10.7 µM | IC50 (UACC-62; five-dose): 20.9 µM | IC (TGI) (UACC-62; five-dose): 32.4 µM | CC50 (UACC-62; five-dose): 97.7 µM | GI50 (BT-549; five-dose): 13.5 µM | IC50 (BT-549; five-dose): 28.2 µM | IC (TGI) (BT-549; five-dose): 28.2 µM | CC50 (BT-549; five-dose): 58.9 µM | GI50 (EKVX; five-dose): 17 µM | IC50 (EKVX; five-dose): 50.1 µM | IC (TGI) (EKVX; five-dose): 95.5 µM | CC50 (EKVX; five-dose): ≥ 100 µM | GI50 (MDA-MB-435; five-dose): 13.2 µM | IC50 (MDA-MB-435; five-dose): 22.4 µM | IC (TGI) (MDA-MB-435; five-dose): 29.5 µM | CC50 (MDA-MB-435; five-dose): 64.6 µM | GI50 (M14; five-dose): 11.5 µM | IC50 (M14; five-dose): 20.4 µM | IC (TGI) (M14; five-dose): 36.3 µM | CC50 (M14; five-dose): ≥ 100 µM | GI50 (ACHN; five-dose): 7.59 µM | IC50 (ACHN; five-dose): 15.5 µM | IC (TGI) (ACHN; five-dose): 100 µM | CC50 (ACHN; five-dose): ≥ 100 µM | GI50 (MDA-MB-231/ATCC; five-dose): 4.37 µM | IC50 (MDA-MB-231/ATCC; five-dose): 11.5 µM | IC (TGI) (MDA-MB-231/ATCC; five-dose): 18.2 µM | CC50 (MDA-MB-231/ATCC; five-dose): 53.7 µM | GI50 (NCI-H460; five-dose): 23.4 µM | IC50 (NCI-H460; five-dose): 28.2 µM | IC (TGI) (NCI-H460; five-dose): 100 µM | CC50 (NCI-H460; five-dose): ≥ 100 µM | GI50 (HT29; HT-29, five-dose): 27.5 µM | IC50 (HT29; HT-29, five-dose): 36.3 µM | IC (TGI) (HT29; HT-29, five-dose): 100 µM | CC50 (HT29; HT-29, five-dose, read-out: LC50 (the source's name) (converted)): ≥ 100 µM | GI50 (SW-620; five-dose): 10.5 µM | IC50 (SW-620; five-dose): 14.5 µM | IC (TGI) (SW-620; five-dose): 56.2 µM | CC50 (SW-620; five-dose): ≥ 100 µM | GI50 (SN12C; five-dose): 19.5 µM | IC50 (SN12C; five-dose): 38.9 µM | IC (TGI) (SN12C; five-dose): 100 µM | CC50 (SN12C; five-dose): ≥ 100 µM | GI50 (RXF 393; five-dose): 14.8 µM | IC50 (RXF 393; five-dose): 42.7 µM | IC (TGI) (RXF 393; five-dose): 40.7 µM | CC50 (RXF 393; five-dose): ≥ 100 µM | GI50 (786-0; five-dose): 37.2 µM | IC50 (786-0; five-dose): 61.7 µM | IC (TGI) (786-0; five-dose): 100 µM | CC50 (786-0; five-dose): ≥ 100 µM | IC50 [1, 2]: 0.679 µM | IC50 [1, 3]: < 2 µM | GI50 (SF-539; five-dose): 18.2 µM | IC50 (SF-539; five-dose): 33.9 µM | IC (TGI) (SF-539; five-dose): 42.7 µM | CC50 (SF-539; five-dose): 97.7 µM | GI50 (SF-295; five-dose): 24.5 µM | IC50 (SF-295; five-dose): 45.7 µM | IC (TGI) (SF-295; five-dose): 100 µM | CC50 (SF-295; five-dose): ≥ 100 µM | GI50 (HCT-15; five-dose): 3.31 µM | IC50 (HCT-15; five-dose): 4.27 µM | IC (TGI) (HCT-15; five-dose): 17.8 µM | CC50 (HCT-15; five-dose): ≥ 100 µM | growth inhibition in the One-Dose Screen (full NCI 60 cell panel): significant growth inhibition
